# Assay results reported in ChEMBL document CHEMBL1765029, “Synthesis and biological evaluation of estradiol linked pyrrolo[2,1-c][1,4]benzodiazepine (PBD) conjugates as potential anticancer agents” (2011).
# Counter-ions that a name gives are not always drawn.
# Test system: MCF7
# Assay: Cytotoxicity against human MCF7 cells by sulforhodamine B method
# Assay type: functional
row,SMILES,GI50 [nM]
1,COc1cc2c(cc1OCc1cn(CCCCCOc3ccc4c(c3)CC[C@@H]3[C@@H]4CC[C@]4(C)[C@@H](O)CC[C@@H]34)nn1)N=C[C@@H]1CCCN1C2=O,140
2,COc1cccc2c1C(=O)c1c(O)c3c(c(O)c1C2=O)C[C@@](O)(C(=O)CO)C[C@@H]3O[C@H]1C[C@H](N)[C@H](O)[C@H](C)O1 [DOXORUBICIN HYDROCHLORIDE],170
3,COc1cc2c(cc1OCCCCCN1CCN(CCCCCOc3ccc4c(c3)CC[C@@H]3[C@@H]4CC[C@]4(C)[C@@H](O)CC[C@@H]34)CC1)N=C[C@@H]1CC(F)(F)CN1C2=O,140
4,COc1cc2c(cc1OCCCCCOc1ccc3c(c1)CC[C@@H]1[C@@H]3CC[C@]3(C)[C@@H](O)CC[C@@H]13)N=C[C@@H]1CC(F)(F)CN1C2=O,170
5,COc1cc2c(cc1OCCCOc1ccc3c(c1)CC[C@@H]1[C@@H]3CC[C@]3(C)[C@@H](O)CC[C@@H]13)N=C[C@@H]1CC(F)(F)CN1C2=O,170

# Test system: A549
# Assay: Cytotoxicity against human A549 cells by sulforhodamine B method
# Assay type: functional
row,SMILES,GI50 [nM]
1,COc1cc2c(cc1OCc1cn(CCCCCOc3ccc4c(c3)CC[C@@H]3[C@@H]4CC[C@]4(C)[C@@H](O)CC[C@@H]34)nn1)N=C[C@@H]1CCCN1C2=O,190
2,COc1cc2c(cc1OCCCCCN1CCN(CCCCCOc3ccc4c(c3)CC[C@@H]3[C@@H]4CC[C@]4(C)[C@@H](O)CC[C@@H]34)CC1)N=C[C@@H]1CC(F)(F)CN1C2=O,130
3,COc1cc2c(cc1OCCCCCOc1ccc3c(c1)CC[C@@H]1[C@@H]3CC[C@]3(C)[C@@H](O)CC[C@@H]13)N=C[C@@H]1CC(F)(F)CN1C2=O,2810
4,COc1cc2c(cc1OCCCOc1ccc3c(c1)CC[C@@H]1[C@@H]3CC[C@]3(C)[C@@H](O)CC[C@@H]13)N=C[C@@H]1CC(F)(F)CN1C2=O,2810

# Test system: ZR-75-1
# Assay: Cytotoxicity against human ZR-75-1 cells by sulforhodamine B method
# Assay type: functional
row,SMILES,GI50 [nM]
1,COc1cc2c(cc1OCc1cn(CCCCCOc3ccc4c(c3)CC[C@@H]3[C@@H]4CC[C@]4(C)[C@@H](O)CC[C@@H]34)nn1)N=C[C@@H]1CCCN1C2=O,110
2,COc1cc2c(cc1OCCCCCN1CCN(CCCCCOc3ccc4c(c3)CC[C@@H]3[C@@H]4CC[C@]4(C)[C@@H](O)CC[C@@H]34)CC1)N=C[C@@H]1CC(F)(F)CN1C2=O,120
3,COc1cc2c(cc1OCCCCCOc1ccc3c(c1)CC[C@@H]1[C@@H]3CC[C@]3(C)[C@@H](O)CC[C@@H]13)N=C[C@@H]1CC(F)(F)CN1C2=O,190
4,COc1cc2c(cc1OCCCOc1ccc3c(c1)CC[C@@H]1[C@@H]3CC[C@]3(C)[C@@H](O)CC[C@@H]13)N=C[C@@H]1CC(F)(F)CN1C2=O,180

# Test system: KB
# Assay: Cytotoxicity against human KB cells by sulforhodamine B method
# Assay type: functional
row,SMILES,GI50 [nM]
1,COc1cc2c(cc1OCc1cn(CCCCCOc3ccc4c(c3)CC[C@@H]3[C@@H]4CC[C@]4(C)[C@@H](O)CC[C@@H]34)nn1)N=C[C@@H]1CCCN1C2=O,800
2,COc1cccc2c1C(=O)c1c(O)c3c(c(O)c1C2=O)C[C@@](O)(C(=O)CO)C[C@@H]3O[C@H]1C[C@H](N)[C@H](O)[C@H](C)O1 [DOXORUBICIN HYDROCHLORIDE],170
3,COc1cc2c(cc1OCCCCCN1CCN(CCCCCOc3ccc4c(c3)CC[C@@H]3[C@@H]4CC[C@]4(C)[C@@H](O)CC[C@@H]34)CC1)N=C[C@@H]1CC(F)(F)CN1C2=O,810
4,COc1cc2c(cc1OCCCCCOc1ccc3c(c1)CC[C@@H]1[C@@H]3CC[C@]3(C)[C@@H](O)CC[C@@H]13)N=C[C@@H]1CC(F)(F)CN1C2=O,140
5,COc1cc2c(cc1OCCCOc1ccc3c(c1)CC[C@@H]1[C@@H]3CC[C@]3(C)[C@@H](O)CC[C@@H]13)N=C[C@@H]1CC(F)(F)CN1C2=O,150

# Test system: HOP-62
# Assay: Cytotoxicity against human HOP62 cells by sulforhodamine B method
# Assay type: functional
row,SMILES,GI50 [nM]
1,COc1cc2c(cc1OCc1cn(CCCCCOc3ccc4c(c3)CC[C@@H]3[C@@H]4CC[C@]4(C)[C@@H](O)CC[C@@H]34)nn1)N=C[C@@H]1CCCN1C2=O,1690
2,COc1cccc2c1C(=O)c1c(O)c3c(c(O)c1C2=O)C[C@@](O)(C(=O)CO)C[C@@H]3O[C@H]1C[C@H](N)[C@H](O)[C@H](C)O1 [DOXORUBICIN HYDROCHLORIDE],140
3,COc1cc2c(cc1OCCCCCN1CCN(CCCCCOc3ccc4c(c3)CC[C@@H]3[C@@H]4CC[C@]4(C)[C@@H](O)CC[C@@H]34)CC1)N=C[C@@H]1CC(F)(F)CN1C2=O,170
4,COc1cc2c(cc1OCCCCCOc1ccc3c(c1)CC[C@@H]1[C@@H]3CC[C@]3(C)[C@@H](O)CC[C@@H]13)N=C[C@@H]1CC(F)(F)CN1C2=O,2110
5,COc1cc2c(cc1OCCCOc1ccc3c(c1)CC[C@@H]1[C@@H]3CC[C@]3(C)[C@@H](O)CC[C@@H]13)N=C[C@@H]1CC(F)(F)CN1C2=O,2110

# Test system: not listed separately
# Assay: Cytotoxicity against human DWD cells by sulforhodamine B method
# Assay type: functional
row,SMILES,GI50 [nM]
1,COc1cc2c(cc1OCc1cn(CCCCCOc3ccc4c(c3)CC[C@@H]3[C@@H]4CC[C@]4(C)[C@@H](O)CC[C@@H]34)nn1)N=C[C@@H]1CCCN1C2=O,170
2,COc1cccc2c1C(=O)c1c(O)c3c(c(O)c1C2=O)C[C@@](O)(C(=O)CO)C[C@@H]3O[C@H]1C[C@H](N)[C@H](O)[C@H](C)O1 [DOXORUBICIN HYDROCHLORIDE],100
3,COc1cc2c(cc1OCCCCCN1CCN(CCCCCOc3ccc4c(c3)CC[C@@H]3[C@@H]4CC[C@]4(C)[C@@H](O)CC[C@@H]34)CC1)N=C[C@@H]1CC(F)(F)CN1C2=O,1320
4,COc1cc2c(cc1OCCCCCOc1ccc3c(c1)CC[C@@H]1[C@@H]3CC[C@]3(C)[C@@H](O)CC[C@@H]13)N=C[C@@H]1CC(F)(F)CN1C2=O,2170
5,COc1cc2c(cc1OCCCOc1ccc3c(c1)CC[C@@H]1[C@@H]3CC[C@]3(C)[C@@H](O)CC[C@@H]13)N=C[C@@H]1CC(F)(F)CN1C2=O,2040

# Test system: not listed separately
# Assay: Cytotoxicity against human Gurav cells by sulforhodamine B method
# Assay type: functional
row,SMILES,GI50 [nM]
1,COc1cc2c(cc1OCc1cn(CCCCCOc3ccc4c(c3)CC[C@@H]3[C@@H]4CC[C@]4(C)[C@@H](O)CC[C@@H]34)nn1)N=C[C@@H]1CCCN1C2=O,180
2,COc1cccc2c1C(=O)c1c(O)c3c(c(O)c1C2=O)C[C@@](O)(C(=O)CO)C[C@@H]3O[C@H]1C[C@H](N)[C@H](O)[C@H](C)O1 [DOXORUBICIN HYDROCHLORIDE],170
3,COc1cc2c(cc1OCCCCCN1CCN(CCCCCOc3ccc4c(c3)CC[C@@H]3[C@@H]4CC[C@]4(C)[C@@H](O)CC[C@@H]34)CC1)N=C[C@@H]1CC(F)(F)CN1C2=O,150
4,COc1cc2c(cc1OCCCCCOc1ccc3c(c1)CC[C@@H]1[C@@H]3CC[C@]3(C)[C@@H](O)CC[C@@H]13)N=C[C@@H]1CC(F)(F)CN1C2=O,2190
5,COc1cc2c(cc1OCCCOc1ccc3c(c1)CC[C@@H]1[C@@H]3CC[C@]3(C)[C@@H](O)CC[C@@H]13)N=C[C@@H]1CC(F)(F)CN1C2=O,2180

# Test system: PC-3
# Assay: Cytotoxicity against human PC3 cells by sulforhodamine B method
# Assay type: functional
row,SMILES,GI50 [nM]
1,COc1cc2c(cc1OCc1cn(CCCCCOc3ccc4c(c3)CC[C@@H]3[C@@H]4CC[C@]4(C)[C@@H](O)CC[C@@H]34)nn1)N=C[C@@H]1CCCN1C2=O,190
2,COc1cc2c(cc1OCCCCCN1CCN(CCCCCOc3ccc4c(c3)CC[C@@H]3[C@@H]4CC[C@]4(C)[C@@H](O)CC[C@@H]34)CC1)N=C[C@@H]1CC(F)(F)CN1C2=O,190
3,COc1cc2c(cc1OCCCCCOc1ccc3c(c1)CC[C@@H]1[C@@H]3CC[C@]3(C)[C@@H](O)CC[C@@H]13)N=C[C@@H]1CC(F)(F)CN1C2=O,2420
4,COc1cc2c(cc1OCCCOc1ccc3c(c1)CC[C@@H]1[C@@H]3CC[C@]3(C)[C@@H](O)CC[C@@H]13)N=C[C@@H]1CC(F)(F)CN1C2=O,2400

# Test system: COLO 205
# Assay: Cytotoxicity against human COLO205 cells by sulforhodamine B method
# Assay type: functional
row,SMILES,GI50 [nM]
1,COc1cc2c(cc1OCc1cn(CCCCCOc3ccc4c(c3)CC[C@@H]3[C@@H]4CC[C@]4(C)[C@@H](O)CC[C@@H]34)nn1)N=C[C@@H]1CCCN1C2=O,170
2,COc1cccc2c1C(=O)c1c(O)c3c(c(O)c1C2=O)C[C@@](O)(C(=O)CO)C[C@@H]3O[C@H]1C[C@H](N)[C@H](O)[C@H](C)O1 [DOXORUBICIN HYDROCHLORIDE],140
3,COc1cc2c(cc1OCCCCCN1CCN(CCCCCOc3ccc4c(c3)CC[C@@H]3[C@@H]4CC[C@]4(C)[C@@H](O)CC[C@@H]34)CC1)N=C[C@@H]1CC(F)(F)CN1C2=O,170
4,COc1cc2c(cc1OCCCCCOc1ccc3c(c1)CC[C@@H]1[C@@H]3CC[C@]3(C)[C@@H](O)CC[C@@H]13)N=C[C@@H]1CC(F)(F)CN1C2=O,200
5,COc1cc2c(cc1OCCCOc1ccc3c(c1)CC[C@@H]1[C@@H]3CC[C@]3(C)[C@@H](O)CC[C@@H]13)N=C[C@@H]1CC(F)(F)CN1C2=O,100

# Test system: A2780
# Assay: Cytotoxicity against human A2780 cells by sulforhodamine B method
# Assay type: functional
row,SMILES,GI50 [nM]
1,COc1cc2c(cc1OCc1cn(CCCCCOc3ccc4c(c3)CC[C@@H]3[C@@H]4CC[C@]4(C)[C@@H](O)CC[C@@H]34)nn1)N=C[C@@H]1CCCN1C2=O,170
2,COc1cccc2c1C(=O)c1c(O)c3c(c(O)c1C2=O)C[C@@](O)(C(=O)CO)C[C@@H]3O[C@H]1C[C@H](N)[C@H](O)[C@H](C)O1 [DOXORUBICIN HYDROCHLORIDE],160
3,COc1cc2c(cc1OCCCCCN1CCN(CCCCCOc3ccc4c(c3)CC[C@@H]3[C@@H]4CC[C@]4(C)[C@@H](O)CC[C@@H]34)CC1)N=C[C@@H]1CC(F)(F)CN1C2=O,160
4,COc1cc2c(cc1OCCCCCOc1ccc3c(c1)CC[C@@H]1[C@@H]3CC[C@]3(C)[C@@H](O)CC[C@@H]13)N=C[C@@H]1CC(F)(F)CN1C2=O,2120
5,COc1cc2c(cc1OCCCOc1ccc3c(c1)CC[C@@H]1[C@@H]3CC[C@]3(C)[C@@H](O)CC[C@@H]13)N=C[C@@H]1CC(F)(F)CN1C2=O,2100

# Test system: SiHa
# Assay: Cytotoxicity against human SiHa cells by sulforhodamine B method
# Assay type: functional
row,SMILES,GI50 [nM]
1,COc1cc2c(cc1OCc1cn(CCCCCOc3ccc4c(c3)CC[C@@H]3[C@@H]4CC[C@]4(C)[C@@H](O)CC[C@@H]34)nn1)N=C[C@@H]1CCCN1C2=O,1170
2,COc1cccc2c1C(=O)c1c(O)c3c(c(O)c1C2=O)C[C@@](O)(C(=O)CO)C[C@@H]3O[C@H]1C[C@H](N)[C@H](O)[C@H](C)O1 [DOXORUBICIN HYDROCHLORIDE],170
3,COc1cc2c(cc1OCCCCCN1CCN(CCCCCOc3ccc4c(c3)CC[C@@H]3[C@@H]4CC[C@]4(C)[C@@H](O)CC[C@@H]34)CC1)N=C[C@@H]1CC(F)(F)CN1C2=O,190
4,COc1cc2c(cc1OCCCCCOc1ccc3c(c1)CC[C@@H]1[C@@H]3CC[C@]3(C)[C@@H](O)CC[C@@H]13)N=C[C@@H]1CC(F)(F)CN1C2=O,2810
5,COc1cc2c(cc1OCCCOc1ccc3c(c1)CC[C@@H]1[C@@H]3CC[C@]3(C)[C@@H](O)CC[C@@H]13)N=C[C@@H]1CC(F)(F)CN1C2=O,2810
